The source of these data is patent publication US8623855B2, “Azetidinone compounds and medical use thereof” (Zhejiang Hisun Pharmaceutical Co., Ltd., priority 2009, dated 2014).

Assay [1] relates to hypercholesterolemia golden hamster model. Description: In vivo pharmacodynamic screening in hypercholesterolemia model of golden hamster (plasma TC and LDL-C). To be noted: for inhibition in vivo at 2 mg/kg / inhibition in vivo at 1 mg/kg / inhibition in vivo at 10 mg/kg / inhibition in vivo at 3 mg/kg: Mesocricetus auratus, po, 168 h; for inhibition in vivo at 2 mg/kg: Table 2; for LDL-C after administration / TC after administration / LDL after administration: 1 week, plasma; for reduction of plasma TC and LDL-C levels (in words): golden hamster hypercholesterolemic model, significant statistical difference; for effect of lowering cholesterol (screening result in words): in vivo pharmacodynamic screening test, Ezetimibe as positive control; for efficacy compared with the positive control (in words): positive control Ezetimibe. Here is the method:
1. Establishment of Hypercholesterolemia Model of Golden Hamster:
The animals were subjected to acclimation feeding for 1 week with free feeding and drinking under a lighting condition of 10 h/14 h. On Day 8, the animals were raised with high fat feed (consisting of 0.5% cholesterol, 20% palm oil, 79.5% basal feed) for 1 week. Then, each animal was anesthetized by ether. After weighing, 0.5 ml blood was obtained from orbital vein, anticoagulated with heparin and centrifuged at 5000 rpm for 10 min. The plasma was collected and the levels of plasma TC (total cholesterol) and LDL-C (low density lipoprotein cholesterol) were determined by automatic biochemical analyzer. Animals with plasma TC of 9-15 mmol/L were selected as model animals (refer to the following reference for the method of animal modeling: Burrier, R. E., Smith, A. A., Mcgregor, D. G, Hoos, L. M., Zilli, D. L., Davis, H. R. The effect of acyl CoA: cholesterol acyltransferase inhibition on the uptake, esterification and secretion of cholesterol by the hamster small intestine. J. Pharm. Exp. Ther., 1995, 272, 156-163).
The animals were grouped according to TC and LDL-C levels and weight with 6 animals per group. Ezetimibe was used as positive control. The animals were intragastrically administered at a volume of 5 ml/kg for 1 week. Each animal was anesthetized by ether. After weighing, 0.5 ml blood was taken from orbital vein, anticoagulated with heparin, and centrifuged at 5000 rpm for 10 min. The plasma was collected and plasma TC (total cholesterol) and LDL-C (low density lipoprotein cholesterol) levels were determined by automatic biochemical analyzer to evaluate the efficacy of the compounds.

A further assay has as its system normal guinea pig. The assay is described as follows: Effect on blood lipid level of normal guinea pigs. It counts as in vivo. As to conditions: Table 13; 2.5 mg/kg.
The mark [2] stands for this setting: Table 6, 1 mg/kg, read-out: Reducing LDL-C %.
The mark [3] stands for this setting: Table 6, 1 mg/kg, read-out: Reducing TC %.
The mark [4] stands for this setting: Table 8, 1 mg/kg, read-out: Reducing LDL-C %.
Setting [5] is: Table 8, 1 mg/kg, read-out: Reducing TC %.
The mark [6] stands for this setting: Table 10, 1 mg/kg, read-out: Reducing LDL-C %.
[7] abbreviates: Table 10, 1 mg/kg, read-out: Reducing TC %.
[8] abbreviates: Table 11, baseline of group dosed 1 mg/kg.
[9] abbreviates: Table 6, read-out: Reducing LDL-C %.
The mark [10] stands for this setting: Table 6, read-out: Reducing TC %.
The mark [11] stands for this setting: Table 8, read-out: Reducing LDL-C %.
Setting [12] is: Table 8, read-out: Reducing TC %.
Setting [13] is: Table 11, 10 mg/kg intragastric.
The mark [14] stands for this setting: Table 11, baseline of group dosed 10 mg/kg.

Like-named read-outs stand apart in the source and are kept apart here.

In the case of `O=C1[C@H](CC[C@H](O)c2ccc(F)cc2)[C@@H](c2ccc(O)cc2)N1c1ccc(F)cc1` [Ezetimibe, reference compound], the values for the inhibition in vivo at 2 mg/kg in assay [1] (read-out: Reducing LDL-C %) and in assay [1] (read-out: Reducing TC %) were 77.6% and 57.4%, respectively. The inhibition in vivo at 1 mg/kg in assay [1] (Table 4, 1 mg/kg, read-out: Reducing TC %) was found to be 58.8%; in assay [1] (setting [2]), 76%; in assay [1] (setting [3]), 58.3%; in assay [1] (setting [4]), 64.2%; in assay [1] (setting [5]), 48.1%; in assay [1] (setting [6]) it was 68.2%. In addition, the inhibition in vivo at 1 mg/kg in assay [1] (setting [7]) came out at 64.4%; in assay [1] (Table 12, 1 mg/kg, read-out: Reducing LDL-C %), 60.8%; in assay [1] (Table 12, 1 mg/kg, read-out: Reducing TC %) it was 58.5%. The LDL-C after administration in assay [1] (Table 1, 2 mg/kg intragastric) is recorded as 0.57 ± 0.34 mmol/L; in assay [1] (Table 11, 1 mg/kg intragastric), 1.13. Also, the TC after administration in assay [1] (Table 1, 2 mg/kg intragastric) came to 4.21 ± 0.68 mmol/L; in assay [1] (Table 3, 1 mg/kg intragastric), 5.62 ± 0.48 mmol/L; in assay [1] (Table 5, 1 mg/kg intragastric), 4.51 mmol/L; in assay [1] (Table 7, 1 mg/kg intragastric), 5.58 mmol/L; in assay [1] (Table 9, 1 mg/kg intragastric), 5.45 mmol/L; in assay [1] (Table 11, 1 mg/kg intragastric), 5.29. For the same compound, the TC after administration in the assay with normal guinea pig is 1.14 ± 0.24 mmol/L. Besides, the LDL-C before administration came out at 2.55 ± 0.96 mmol/L in assay [1] (Table 1, baseline of group dosed 2 mg/kg) and 2.88 ± 0.79 in assay [1] (setting [8]). The LDL after administration stood at 1.16 ± 0.44 mmol/L in assay [1] (Table 3, 1 mg/kg intragastric); 1.3 mmol/L in assay [1] (Table 5, 1 mg/kg intragastric); 1.62 mmol/L in assay [1] (Table 7, 1 mg/kg intragastric); 1.0 mmol/L in assay [1] (Table 9, 1 mg/kg intragastric); 0.99 mmol/L in the assay on normal guinea pig. For the same compound, the “Reducing LDL %” value in assay [1] (Table 4, 1 mg/kg) was 36.0%. This compound returned a TC before administration in assay [1] (setting [8]) of 12.74 ± 1.44. In the assay with normal guinea pig, the HDL after administration came out at 0.41 mmol/L. The same compound showed a TG after administration in the assay on normal guinea pig of 0.41 ± 0.12 mmol/L.
On to `CC(=O)OC/C(=C\C[C@H]1C(=O)N(c2ccc(F)cc2)[C@@H]1c1ccc(O)cc1)c1ccc(F)cc1` [I-12(Z), (3R,4S)-3-[(Z)-4-acetoxy-3-(4-fluorophenyl)-but-2-enyl]-1-(4-fluorophenyl)-4-(4-hydroxyphenyl)azetidin-2-one], for which the inhibition in vivo at 1 mg/kg is 62.8% in assay [1] (setting [2]) and 50.9% in assay [1] (setting [3]). Also, the values for the inhibition in vivo at 10 mg/kg in assay [1] (setting [9]) and in assay [1] (setting [10]) were 71.5% and 54.8%, respectively. Also, the LDL after administration is on record as 1.58 mmol/L in assay [1] (Table 5, 1 mg/kg intragastric) and 1.34 mmol/L in assay [1] (Table 5, 10 mg/kg intragastric). For the same compound, the TC after administration worked out at 5.29 mmol/L in assay [1] (Table 5, 1 mg/kg intragastric) and 4.86 mmol/L in assay [1] (Table 5, 10 mg/kg intragastric). Further, the “reduction of plasma TC and LDL-C levels (in words)” value (from here on “reduction”) in assay [1] was “can significantly reduce the plasma TC and LDL-C levels”. The “effect of lowering cholesterol (screening result in words)” value (from here on “effect of lowering cholesterol”) in assay [1] is “have the effect of lowering cholesterol”.
With `O=C(OC/C(=C\C[C@H]1C(=O)N(c2ccc(F)cc2)[C@@H]1c1ccc(O)cc1)c1ccc(F)cc1)c1ccccc1` [I-13(Z)], the inhibition in vivo at 1 mg/kg in assay [1] (setting [2]) worked out at 58.1%; in assay [1] (setting [3]) it was 36.8%. Further, the inhibition in vivo at 10 mg/kg in assay [1] (setting [9]) stood at 68.8%; in assay [1] (setting [10]) it was 55.4%. Further, the LDL after administration in assay [1] (Table 5, 1 mg/kg intragastric) came out at 1.98 mmol/L; in assay [1] (Table 5, 10 mg/kg intragastric) it was 1.27 mmol/L. Besides, the TC after administration amounted to 6.92 mmol/L in assay [1] (Table 5, 1 mg/kg intragastric) and 4.81 mmol/L in assay [1] (Table 5, 10 mg/kg intragastric). The “reduction” value in assay [1] is “can significantly reduce the plasma TC and LDL-C levels”. The “effect of lowering cholesterol” value in assay [1] was “have the effect of lowering cholesterol”.
Consider `O=C(OC/C(=C\C[C@H]1C(=O)N(c2ccc(F)cc2)[C@@H]1c1ccc(O)cc1)c1ccc(F)cc1)c1ccc(F)cc1` [I-14(Z)], for which the inhibition in vivo at 1 mg/kg in assay [1] (setting [4]) came to 28.6%; in assay [1] (setting [5]), 13.5%. The inhibition in vivo at 3 mg/kg in assay [1] (setting [11]) came to 52.3%; in assay [1] (setting [12]), 44.4%. Besides, the LDL after administration in assay [1] (Table 7, 1 mg/kg intragastric) amounted to 2.56 mmol/L; in assay [1] (Table 7, 3 mg/kg intragastric) it was 2.01 mmol/L. The TC after administration in assay [1] (Table 7, 1 mg/kg intragastric) is reported as 9.34 mmol/L; in assay [1] (Table 7, 3 mg/kg intragastric), 6.06 mmol/L. Moreover, in assay [1], the “reduction” value was “can significantly reduce the plasma TC and LDL-C levels”. Further, in assay [1], the “effect of lowering cholesterol” value was “have the effect of lowering cholesterol”.
As for `Cc1ccc(C(=O)OC/C(=C\C[C@H]2C(=O)N(c3ccc(F)cc3)[C@@H]2c2ccc(O)cc2)c2ccc(F)cc2)cc1` [I-15(Z)], in assay [1] (setting [4]), the inhibition in vivo at 1 mg/kg amounted to 46.5%. The inhibition in vivo at 1 mg/kg in assay [1] (setting [5]) worked out at 38.1%. The inhibition in vivo at 3 mg/kg in assay [1] (setting [11]) was 70.4%. The inhibition in vivo at 3 mg/kg in assay [1] (setting [12]) is 50.8%. In assay [1] (Table 7, 1 mg/kg intragastric), this compound displayed an LDL after administration of 1.99 mmol/L and a TC after administration of 6.76 mmol/L. Further, in assay [1] (Table 7, 3 mg/kg intragastric), the LDL after administration stood at 1.44 mmol/L and the TC after administration is listed as 5.37 mmol/L. Moreover, in assay [1], the “reduction” value is “can significantly reduce the plasma TC and LDL-C levels”; the “effect of lowering cholesterol” value is on record as “have the effect of lowering cholesterol”; the “efficacy compared with the positive control (in words)” value was “more similar to the positive control”.
Turning to `CC(=O)OC/C(=C\C[C@H]1C(=O)N(c2ccc(F)cc2)[C@@H]1c1ccc(OC(=O)c2ccccc2)cc1)c1ccc(F)cc1` [I-16(Z), (3R,4S)-3-[(Z)-4-acetoxy-3-(4-fluorophenyl)-but-2-enyl]-4-(4-benzoyloxyphenyl)-1-(4-fluorophenyl)azetidin-2-one], the inhibition in vivo at 1 mg/kg was found to be 31.7% in assay [1] (setting [6]) and 37.4% in assay [1] (setting [7]). Besides, the inhibition in vivo at 10 mg/kg in assay [1] (Table 10, read-out: Reducing LDL-C %) is 65%; in assay [1] (Table 10, read-out: Reducing TC %), 60.9%. Besides, the LDL after administration in assay [1] (Table 9, 1 mg/kg intragastric) is on record as 2.15 mmol/L; in assay [1] (Table 9, 10 mg/kg intragastric), 1.1 mmol/L. In addition, the TC after administration in assay [1] (Table 9, 1 mg/kg intragastric) stood at 9.61 mmol/L; in assay [1] (Table 9, 10 mg/kg intragastric), 6.0 mmol/L. In assay [1], the “reduction” value was “can significantly reduce the plasma TC and LDL-C levels”. In addition, the “effect of lowering cholesterol” value in assay [1] is recorded as “have the effect of lowering cholesterol”.
With `COc1ccc([C@@H]2[C@@H](C/C=C(\COC(C)=O)c3ccc(F)cc3)C(=O)N2c2ccc(F)cc2)cc1` [I-17(Z), (3R,4S)-3-[(Z)-4-acetoxy-3-(4-fluorophenyl)-but-2-enyl]-1-(4-fluorophenyl)-4-(4-methoxyphenyl)azetidin-2-one], the inhibition in vivo at 10 mg/kg in assay [1] (Table 12, read-out: Reducing LDL-C %) was found to be 60.1%. Also, the inhibition in vivo at 10 mg/kg in assay [1] (Table 12, read-out: Reducing TC %) is 59.8%. In assay [1] (setting [13]), this compound registered an LDL-C after administration of 1.19 and a TC after administration of 5.09. In assay [1] (setting [14]), this compound registered an LDL-C before administration of 2.98 ± 0.72 and a TC before administration of 12.67 ± 1.28. In assay [1], the “reduction” value is “can significantly reduce the plasma TC and LDL-C levels”; the “effect of lowering cholesterol” value is given as “have the effect of lowering cholesterol”; the “efficacy compared with the positive control (in words)” value is “more similar to the positive control”.
